SMILES strings stand for the structures.

This data set is described as follows: Hansen solubility parameter (SP value and terms) of reagents. Format: physicochemical. Details: unit: MPa^0.5. The following applies: SP^2=δD^2+δP^2+δH^2. The text has this: The SP value of Hansen solubility parameter herein is a value obtained by dividing the solubility parameter introduced by Hildebrand into three parameters, the dispersion term OD, the polarity term OP, and the hydrogen bond term OH, and plotting a point in a three-dimensional space (Hansen space, HSP space).
The dispersion term δD represents the effect due to dispersion force, the polarity term δP represents the effect due to dipole-dipole force, and the hydrogen bond term OH represents the effect due to hydrogen bond force. […]
δD: The energy derived from dispersion forces between molecules (the dispersion term) δP: The energy derived from polar forces between molecules (the polarity term) δH: The energy derived from hydrogen bond forces between molecules (the hydrogen bond term) The unit of each of the terms is MPa^0.5.
There is a relationship between Hildebrand's SP value and Hansen's HSP as shown below.
(Hildebrand's SP)^2=δD^2+δP^2+δH^2
Suitable examples of the silane coupling agent having a SP value of 15 or more may include the followings. Needless to say, the silane coupling agent used in the present embodiment is not limited to those below.
Molecule `CCO[Si](CCCNCCN)(OCC)OCC` [AEAPTES, 3-(2-aminoethylamino) propyltriethoxysilane] returned an SP value of 15.6.

As to `CO[Si](CCCNCCN)(OC)OC` [AEAPTMS, 3-(2-aminoethylamino) propyltrimethoxysilane], the SP value amounted to 16.2.

In turn, `CO[Si](CCCNCCCCCCN)(OC)OC` [AHAPTMS, 3-(6-aminohexylamino) propyltrimethoxysilane] came in with an SP value of 15.3.

In the case of `CCO[Si](CCCN)(OCC)OCC` [APTES, 3-aminopropyltriethoxysilane], the SP value was 15.2.

Take `CO[Si](CCCN)(OC)OC` [APTMS, 3-aminopropyltrimethoxysilane]: the SP value is 15.8.

`CO[Si](C)(OC)OC` [MTMS, methyltrimethoxysilane]: the SP value amounted to 15.2.

The record behind these values is patent publication US20250201546A1, “METHOD FOR PROCESSING SUBSTRATE, KIT FOR PROCESSING SUBSTRATE, AND METHOD FOR MANUFACTURING SEMICONDUCTOR SUBSTRATE” (TOKYO OHKA KOGYO CO., LTD., priority 2023, published 2025).
